Data reported in US12280179B2 (Urotronic, Inc., priority 2012, dated 2025).

Assays:
[1] = stability of additives with paclitaxel under ethylene oxide sterilization, heating and aging; conditions: additive with paclitaxel; reacted with paclitaxel
[2] = Human clinical study, urethral strictures: paclitaxel in blood, urine, semen; assay type: in vivo
Description: Clinical subjects were evaluated at 14, 30, 90, 180, 365 days, and 2 years after the index procedure. Evaluations included analysis of stricture free rate, uroflowmetry including Qmax, and PVR.

[3] = BPH Preclinical Study 4: tissue pharmacokinetics of paclitaxel; assay type: in vivo, dog
Description: (§1) This study was completed on mongrel canines.

prostate = experiment: BPH Preclinical Study 4: histology, clinical observation, urethra lumen diameter; assay type: in vivo, dog
Description: as §1

[4] = with the addition of BSA; cited from earlier work
[5] = Human clinical study, BPH: paclitaxel in blood, urine, semen; assay type: in vivo
[6] = BPH Preclinical Study 4: plasma paclitaxel concentration; assay type: in vivo, dog
Description: as §1

albumin = conditions: cited from earlier work

With `O=C(O)c1ccccc1` [benzoic acid] the “stability under ethylene oxide sterilization, heating, and aging process” value [1] was “not stable”.

For `CC(=O)O[C@H]1C(=O)[C@@]2(C)[C@H]([C@H](OC(=O)c3ccccc3)[C@]3(O)C[C@H](OC(=O)[C@H](O)[C@@H](NC(=O)c4ccccc4)c4ccccc4)C(C)=C1C3(C)C)[C@]1(OC(C)=O)CO[C@@H]1C[C@@H]2O` [paclitaxel], the “Human plasma paclitaxel concentration” value ([2]; 1 hour, 3 hours, 5 hours, 10 hours, 24 hours, and 5 days) was “below the level of quantification”, the concentration at 14 days ([2]; human, semen) was 2.5 ng/mL and the concentration at 30 days ([2]; human, semen) was 1 ng/mL. The concentration at 5 days ([2]; human, urine, 5 days) was 2.6 ng/mL, the concentration at 14 days ([2]; human, urine) was 0.3 ng/mL and the concentration at 30 days ([2]; human, urine) was 0.1 ng/mL. The “Human urine paclitaxel concentration, average” value ([2]; immediately post procedure) was 184 ng/mL, the “Human plasma paclitaxel concentration, average” value ([2]; immediately post treatment) was 0.1 ng/mL and the “prostate drug concentration, maximum dose arm versus standard dose” value ([3]; 28 days) was 4.5 times. The “prostatic urethra drug concentration, maximum dose arm versus standard dose” value ([3]; 28 days) was 11 times, the “prostate drug concentration, maximum dose arm versus standard dose” value ([3]; 70 days) was 23 times and the “prostatic urethra drug concentration, maximum dose arm versus standard dose” value ([3]; 70 days) was 23 times. The “average drug concentration, epididymis” value ([3]; lowest, immediately after treatment) was 0.0017 µg/g, the concentration at 28 days ([3]; male, mongrel, dog, prostate, other: transurethral drug-coated balloon catheter, 6.8 mg, standard dose arm, 28 days) was 20 ng/g and the concentration at 1 h ([3]; male, mongrel, dog, prostatic urethra, other: transurethral drug-coated balloon catheter, 6.8 mg) was 28000 ng/g. The concentration at 70 days ([3]; male, mongrel, dog, prostatic urethra, other: transurethral drug-coated balloon catheter, 6.8 mg, standard dose arm, 70 days) was 4 ng/g, the “nonurethral close proximity tissue sample concentrations” value ([3]; most samples, 28 days and beyond) was “at or below the limit of quantification” and the clinical abnormalities (prostate; any animals, duration of the study) was “No significant clinical abnormalities”. For the same compound, the prostate histology (prostate; maximum dose animals, slower healing relative to standard dose and control) was “ongoing healing at 28 days”, the abnormalities or complications (prostate; maximum dose treatment arm using 19.6 mg of paclitaxel) was “no abnormalities or complications” and the “increase of solubility in PBS” value [4] was “over 20 fold”. For the same compound, the “Human urine paclitaxel concentration, average” value ([5]; immediately post procedure) was 598 ng/mL, the “Human plasma paclitaxel concentration, average” value ([5]; immediately post treatment) was 0.2 ng/mL and the concentration at 1 h ([5]; male, human, plasma, 2.4 μg of paclitaxel per millimeter squared, 1 hour) was 0.2 ng/mL. It also gave a concentration at 3 h ([5]; male, human, plasma, 2.4 μg of paclitaxel per millimeter squared, 3 hours) of 0.1 ng/mL, a concentration at 5 h ([5]; male, human, plasma, 2.4 μg of paclitaxel per millimeter squared, 5 hours) of 0.1 ng/mL and a concentration at 10 h ([5]; male, human, plasma, 2.4 μg of paclitaxel per millimeter squared, 10 hours) of 0.07 ng/mL. It also gave a concentration at 24 h ([5]; male, human, plasma, 2.4 μg of paclitaxel per millimeter squared, 24 hours) of 0.03 ng/mL, a concentration at 14 days ([5]; male, human, semen, 2.4 μg of paclitaxel per millimeter squared, 14 days) of 5.3 ng/mL and a concentration at 4 days ([5]; male, human, urine, 2.4 μg of paclitaxel per millimeter squared, 4 days) of 202 ng/mL. For the same compound, the concentration at 30 days ([5]; male, human, urine, 2.4 μg of paclitaxel per millimeter squared, 30 days) was 5.1 ng/mL, the plasma paclitaxel concentration ([6]; maximum dose, 12 hour and later) was “BLOQ” and the plasma paclitaxel concentration ([6]; standard dose, all time-points (1, 3, 7, 12 hours, 1, 3, 7, 14, and 28 days)) was “BLOQ”.

In the case of `CO[C@H]1C[C@@H]2CC[C@@H](C)[C@@](O)(O2)C(=O)C(=O)N2CCCC[C@H]2C(=O)O[C@H]([C@H](C)C[C@@H]2CC[C@@H](O)[C@H](OC)C2)CC(=O)[C@H](C)/C=C(\C)[C@@H](O)[C@@H](OC)C(=O)[C@H](C)C[C@H](C)/C=C/C=C/C=C/1C` [rapamycin], the protein bound (albumin) is given as 92% and the “share of protein binding that is to albumin” value (albumin; primarily to albumin) is given as 97%.
